Structures can show the parent of a compound that is named as a salt. Where two headings read alike, the source gives them in different places.
Legend:
BRD4(1) = biological target: T1, BRD4(1) (Homo sapiens, UniProt O60885); assay: Inhibition of tetra-acetylated histone H4 binding to individual BET bromodomains (AlphaScreen); conditions: His-tagged BRD4(1) 20 nM, biotinylated tetra-acetylated histone H4 peptide, 30 min incubation; read-out: FRET activity BRD4(1)
T1 construct: N-terminally His-tagged bromodomains (BRD4(1) at 20 nM and BRD4(2) at 100 nM); made in house; host or cells: E. coli BL21(DE3)
Experimental: Proteins were cloned and overexpressed with a N-terminal 6×His tag, then purified by nickel affinity followed by size exclusion chromatography. Briefly, E. coli BL21(DE3) cells were transformed with a recombinant expression vector encoding N-terminally Nickel affinity tagged bromodomains from Brd2, Brd3, Brd4. Cell cultures were incubated at 37° C. with shaking to the appropriate density and induced overnight with IPTG. The supernatant of lysed cells was loaded onto Ni-IDA column for purification. Eluted protein was pooled, concentrated and further purified by size exclusion chromatography. Fractions representing monomeric protein were pooled, concentrated, aliquoted, and frozen at −80° C. for use in subsequent experiments.
Binding of tetra-acetylated histone H4 peptide (Millipore) and BET bromodomains was confirmed by Amplified Luminescent Proximity Homogenous Assay (AlphaScreen). N-terminally His-tagged bromodomains (BRD4(1) at 20 nM and BRD4(2) at 100 nM) and biotinylated tetra-acetylated histone H4 (10-25 nM) were incubated in the presence of nickel chelate acceptor beads and streptavidin donor beads (PerkinAlmer, 6760000K) added to a final concentration of 2 μg/mL under green light in a white 96 well microtiter plate (Greiner). For inhibition assays, serially diluted compounds were added to the reaction mixtures in a 0.1% final concentrations of DMSO. Final buffer concentrations were 50 mM HEPES, 100 mM NaCl and 0.1% BSA buffer, pH 7.4 and optimized to 30 min incubation time. Assay plates were read at 570 nm on a Synergy H4 Plate Reader (Biotek). IC50 values were determined from a dose response curve.

cMYC = assay: Inhibition of cMYC expression in cancer cell lines (MV4-11, real-time PCR); assay type: cell-based; conditions: Homo sapiens, read-out: Myc activity
Experimental: MV4-11 cells (CRL-9591) were plated at a density of 2.5×10^4 cells per well in 96 well U-bottom plates and treated with increasing concentrations of test compound or DMSO (0.1%) in IMDM media containing 10% FBS and penicillin/streptomycin, and incubated for 3 h at 37° C. Triplicate wells were used for each concentration. Cells were pelleted by centrifugation and harvested using the mRNA Catcher PLUS kit according to manufacturer's instructions. The eluted mRNA isolated was then used in a one-step quantitative real-time PCR reaction, using components of the RNA UltraSense™ One-Step Kit (Life Technologies) together with Applied Biosystems TaqMan® primer-probes for cMYC and Cyclophilin. Real-time PCR plates were run on a ViiA™7 real time PCR machine (Applied Biosystems), data were analyzed, normalizing the Ct values for cMYC to an internal control, prior to determining the fold expression of each sample, relative to the control.

MV4-11 cells = assay: Inhibition of cell proliferation in cancer cell lines (MV4-11, CellTiter Aqueous One); assay type: cell-based; conditions: Homo sapiens, read-out: Proliferation activity
Experimental: MV4-11 cells (CRL-9591) were plated at a density of 5×10^4 cells per well in 96 well flat bottom plates and treated with increasing concentrations of test compound or DMSO (0.1%) in IMDM media containing 10% FBS and penicillin/streptomycin. Triplicate wells were used for each concentration and a well containing only media was used as a control. Plates were incubated at 37° C., 5% CO2 for 72 h before adding 20 μL of the CellTiter Aqueous One Solution (Promega) to each well and incubating at 37° C., 5% CO2 for an additional 3-4 h. The absorbance was read at 490 nm in a spectrophotometer and the percentage of cell titer relative to DMSO-treated cells was calculated after correcting for background by subtracting the blank well's signal. IC50 values were calculated using the GraphPad Prism software.

[1] = MV4-11 cells, 3 h incubation, cMYC mRNA

Structure (SMILES)	IC50 (BRD4(1))	IC50 (cMYC; [1])	IC50 (MV4-11 cells; MV4-11 cells, 72 h incubation)	IC50 (cMYC; MV4-11, 3 h)	IC50 (MV4-11 cells; MV4-11, 72 h)
C=CC(=O)N(C)c1cnc2nc(N3CC[C@@H](CO)C3)n(Cc3ccccc3)c2c1 [Example 45, (R)—N-(1-Benzyl-2-(3-(hydroxymethyl)pyrrolidin-1-yl)-1H-imidazo[4,5-b]pyridin-6-yl)-N-methylacrylamide]	≤ 0.3 µM	0.3 to 3 µM	0.3 to 3 µM	–	–
C=CC(=O)N(C)c1cnc2nc(N3CC(N(C)C)C3)n(Cc3ccccc3)c2c1 [Example 47, N-(1-Benzyl-2-(3-(dimethylamino)azetidin-1-yl)-1H-imidazo[4,5-b]pyridin-6-yl)-N-methylacrylamide]	≤ 0.3 µM	0.3 to 3 µM	3 to 30 µM	–	–
C=CC(=O)N(C)c1cnc2nc(N3CC[C@H](N(C)C)C3)n(Cc3ccccc3)c2c1 [Example 38, (S)—N-(1-Benzyl-2-(3-(dimethylamino)pyrrolidin-1-yl)-1H-imidazo[4,5-b]pyridin-6-yl)-N-methylacrylamide]	≤ 0.3 µM	0.3 to 3 µM	0.3 to 3 µM	–	–
C=CC(=O)N(C)c1cnc2nc(N3CC[C@@H](NC(C)=O)C3)n(Cc3ccccc3)c2c1 [Example 44, (R)—N-(2-(3-Acetamidopyrrolidin-1-yl)-1-benzyl-1H-imidazo[4,5-b]pyridin-6-yl)-N-methylacrylamide]	≤ 0.3 µM	0.3 to 3 µM	3 to 30 µM	–	–
C=CC(=O)N(C)c1cnc2nc(N3CCOCC3)n(Cc3ccccc3)c2c1 [Example 16, N-(1-Benzyl-2-morpholino-1H-imidazo[4,5-b]pyridin-6-yl)-N-methylacrylamide]	≤ 0.3 µM	3 to 30 µM	3 to 30 µM	–	–
C=CC(=O)N(C)c1cnc2nc(N3CC[C@@H](O)C3)n(Cc3ccccc3)c2c1 [Example 41, (R)—N-(1-Benzyl-2-(3-hydroxypyrrolidin-1-yl)-1H-imidazo[4,5-b]pyridin-6-yl)-N-methylacrylamide]	≤ 0.3 µM	–	–	3 to 30 µM	3 to 30 µM
C=CC(=O)N(C)c1cnc2nc(N3CC[C@H](O)C3)n(Cc3ccccc3)c2c1 [Example 46, (S)—N-(1-Benzyl-2-(3-hydroxypyrrolidin-1-yl)-1H-imidazo[4,5-b]pyridin-6-yl)-N-methylacrylamide]	≤ 0.3 µM	0.3 to 3 µM	0.3 to 3 µM	–	–
C=CC(=O)N(C)c1cnc2nc(N3Cc4cnn(C)c4C3)n(Cc3ccccc3)c2c1 [Example 48, N-(1-Benzyl-2-(1-methylpyrrolo[3,4-c]pyrazol-5(1H,4H,6H)-yl)-1H-imidazo[4,5-b]pyridin-6-yl)-N-methylacrylamide]	≤ 0.3 µM	0.3 to 3 µM	0.3 to 3 µM	–	–
CN(C)C(=O)N(C)c1cnc2nc(N3CCCC3)n(Cc3ccccc3)c2c1 [Example 35, 1-(1-Benzyl-2-(pyrrolidin-1-yl)-1H-imidazo[4,5-b]pyridin-6-yl)-1,3,3-trimethylurea]	0.3 to 3 µM	–	–	3 to 30 µM	3 to 30 µM
Cc1nc2ncc(N(C)C(=O)CCCl)cc2n1Cc1ccccc1 [Example 5, N-(1-Benzyl-2-methyl-1H-imidazo[4,5-b]pyridin-6-yl)-3-chloro-N-methylpropanamide]	0.3 to 3 µM	3 to 30 µM	3 to 30 µM	–	–
CC(C)C(=O)N(C)c1cnc2nc(N3CCCC3)n(Cc3ccccc3)c2c1 [Example 33, N-(1-Benzyl-2-(pyrrolidin-1-yl)-1H-imidazo[4,5-b]pyridin-6-yl)-N-methylisobutyramide]	0.3 to 3 µM	0.3 to 3 µM	3 to 30 µM	–	–
CCOC(=O)N(C)c1cnc2nc(N3CCCC3)n(Cc3ccccc3)c2c1 [Example 36, Ethyl (1-benzyl-2-(pyrrolidin-1-yl)-1H-imidazo[4,5-b]pyridin-6-yl)(methyl)carbamate]	≤ 0.3 µM	–	–	0.3 to 3 µM	0.3 to 3 µM
C=CC(=O)N(C)c1cnc2nc(NC)n(Cc3ccccc3)c2c1 [Example 21, N-(1-Benzyl-2-(methylamino)-1H-imidazo[4,5-b]pyridin-6-yl)-N-methylacrylamide]	≤ 0.3 µM	0.3 to 3 µM	0.3 to 3 µM	–	–
C=CC(=O)N(C)c1cnc2nc(N3C4CCC3CC(O)C4)n(Cc3ccccc3)c2c1 (stereo not drawn) [Example 24, N-(1-Benzyl-2-(3-hydroxy-8-azabicyclo[3.2.1]octan-8-yl)-1H-imidazo[4,5-b]pyridin-6-yl)-N-methylacrylamide]	≤ 0.3 µM	–	–	0.3 to 3 µM	3 to 30 µM
CCC(=O)N(C)c1cnc2nc(N3CCCC3)n(Cc3ccccc3)c2c1 [Example 28, N-(1-Benzyl-2-(pyrrolidin-1-yl)-1H-imidazo[4,5-b]pyridin-6-yl)-N-methylpropionamide]	≤ 0.3 µM	0.3 to 3 µM	0.3 to 3 µM	–	–
C=CC(=O)N(C)c1cnc2nc(N3CC[C@H](NC(C)=O)C3)n(Cc3ccccc3)c2c1 [Example 43, (S)—N-(2-(3-Acetamidopyrrolidin-1-yl)-1-benzyl-1H-imidazo[4,5-b]pyridin-6-yl)-N-methylacrylamide]	≤ 0.3 µM	3 to 30 µM	3 to 30 µM	–	–
C=CC(=O)N(C)c1cnc2nc(N3CC=CC3)n(Cc3ccccc3)c2c1 [Example 22, N-(1-Benzyl-2-(2,5-dihydro-1H-pyrrol-1-yl)-1H-imidazo[4,5-b]pyridin-6-yl)-N-methylacrylamide hydrochloride]	≤ 0.3 µM	0.3 to 3 µM	0.3 to 3 µM	–	–
C[C@H](O)C(=O)N(C)c1cnc2nc(N3CCCC3)n(Cc3ccccc3)c2c1 [Example 34, (S)—N-(1-Benzyl-2-(pyrrolidin-1-yl)-1H-imidazo[4,5-b]pyridin-6-yl)-2-hydroxy-N-methylpropanamide]	≤ 0.3 µM	0.3 to 3 µM	0.3 to 3 µM	–	–
C=CC(=O)N(C)c1cnc2nc(NC3CCOCC3)n(Cc3ccccc3)c2c1 [Example 20, N-(1-Benzyl-2-((tetrahydro-2H-pyran-4-yl)amino)-1H-imidazo[4,5-b]pyridin-6-yl)-N-methylacrylamide]	≤ 0.3 µM	0.3 to 3 µM	0.3 to 3 µM	–	–
C=CC(=O)N(C)c1cnc2nc(N3CCC3)n(Cc3ccccc3)c2c1 [Example 17, N-(2-(Azetidin-1-yl)-1-benzyl-1H-imidazo[4,5-b]pyridin-6-yl)-N-methylacrylamide]	≤ 0.3 µM	–	–	0.3 to 3 µM	0.3 to 3 µM
C=CC(=O)N(C)c1cnc2nc(C)n(Cc3ccccc3)c2c1 [Example 4, N-(1-Benzyl-2-methyl-1H-imidazo[4,5-b]pyridin-6-yl)-N-methylacrylamide]	≤ 0.3 µM	0.3 to 3 µM	3 to 30 µM	–	–
C=CC(=O)N(C)c1cnc2nc(N3CC(CO)C3)n(Cc3ccccc3)c2c1 [Example 26, N-(1-Benzyl-2-(3-(hydroxymethyl)azetidin-1-yl)-1H-imidazo[4,5-b]pyridin-6-yl)-N-methylacrylamide]	≤ 0.3 µM	0.3 to 3 µM	3 to 30 µM	–	–
C=CC(=O)N(C)c1cnc2nc(N3CC[C@@H](N(C)C)C3)n(Cc3ccccc3)c2c1 [Example 39, (R)—N-(1-Benzyl-2-(3-(dimethylamino)pyrrolidin-1-yl)-1H-imidazo[4,5-b]pyridin-6-yl)-N-methylacrylamide]	≤ 0.3 µM	0.3 to 3 µM	0.3 to 3 µM	–	–
C=CC(=O)N(C)c1cnc2nc(N3CCCCC3)n(Cc3ccccc3)c2c1 [Example 23, N-(1-Benzyl-2-(piperidin-1-yl)-1H-imidazo[4,5-b]pyridin-6-yl)-N methylacrylamide]	0.3 to 3 µM	0.3 to 3 µM	3 to 30 µM	–	–

Reference: US20190263799A1, “1H-IMIDAZO[4,5-B]PYRIDINYL AND 2-OXO-2,3-DIHYDRO-1H-IMIDAZO[4,5-B]PYRIDINYL HETEROCYCLIC BET BROMODOMAIN INHIBITORS” (ZENITH EPIGENETICS LTD., priority 2015, published 2019)
